Source: patent US7183075B2, “Purified and isolated potassium-chloride cotransporter nucleic acids and polypeptides and therapeutic and screening methods using same” (Vanderbilt University, priority 2000, dated 2007)
Like-named read-outs stand apart in the source and are kept apart here.

Biological target: T1, mKCC4 (Mus musculus, UniProt Q9WVL3)
T1 construct: a full-length mKCC4 cDNA was used as a standard in the Xenopus expression vector pGEMHE; expressed in transfected cells; host or cells: Xenopus laevis oocytes injected with cRNA (pGEMHE, T7 transcript)
T1 sequence (Q9WVL3 1-1083 L71X/L155X/L467X/L586X/L639X/L1023X): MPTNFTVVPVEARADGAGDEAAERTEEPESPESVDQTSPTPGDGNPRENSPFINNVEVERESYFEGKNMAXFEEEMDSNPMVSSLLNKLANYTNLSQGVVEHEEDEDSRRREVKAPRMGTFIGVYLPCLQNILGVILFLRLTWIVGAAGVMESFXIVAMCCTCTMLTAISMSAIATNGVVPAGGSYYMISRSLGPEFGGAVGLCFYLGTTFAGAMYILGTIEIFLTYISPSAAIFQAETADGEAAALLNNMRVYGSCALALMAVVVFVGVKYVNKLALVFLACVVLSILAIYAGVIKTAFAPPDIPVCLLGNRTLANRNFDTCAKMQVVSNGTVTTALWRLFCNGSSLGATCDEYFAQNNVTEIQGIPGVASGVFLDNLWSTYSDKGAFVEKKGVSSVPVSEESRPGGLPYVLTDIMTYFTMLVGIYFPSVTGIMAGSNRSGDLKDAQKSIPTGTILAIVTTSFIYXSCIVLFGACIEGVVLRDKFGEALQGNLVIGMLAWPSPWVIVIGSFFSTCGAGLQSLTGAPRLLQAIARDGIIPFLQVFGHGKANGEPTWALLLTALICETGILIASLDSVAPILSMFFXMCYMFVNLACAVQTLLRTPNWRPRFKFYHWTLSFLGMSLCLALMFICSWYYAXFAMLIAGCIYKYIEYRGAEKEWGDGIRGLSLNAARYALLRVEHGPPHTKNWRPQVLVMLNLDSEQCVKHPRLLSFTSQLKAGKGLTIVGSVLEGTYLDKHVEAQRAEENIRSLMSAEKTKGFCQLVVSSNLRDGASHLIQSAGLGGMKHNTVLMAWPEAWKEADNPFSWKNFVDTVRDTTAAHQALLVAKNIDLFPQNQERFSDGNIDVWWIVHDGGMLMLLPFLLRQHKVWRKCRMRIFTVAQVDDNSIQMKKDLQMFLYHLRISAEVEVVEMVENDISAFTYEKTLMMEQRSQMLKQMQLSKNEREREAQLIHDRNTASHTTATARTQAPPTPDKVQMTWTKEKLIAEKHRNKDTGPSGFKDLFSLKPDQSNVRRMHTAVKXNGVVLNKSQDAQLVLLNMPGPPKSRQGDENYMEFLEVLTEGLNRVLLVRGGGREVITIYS
Assay: 86Rb+ uptake (K+-Cl- cotransport) in Xenopus oocytes injected with mKCC4 cRNA
Format: cell-based
Details: for KCC4 function remaining: 100 μM DIDS; for relative KCC4 activity: 2 mM diuretic; for effect on activation of KCC4 by cell swelling: calyculin A 100 nM, okadaic acid 1 nM, cypermethrin 100 pM
Procedure: Oocytes were surgically collected from anesthetized female Xenopus adults under 0.17% tricaine and incubated for 1 hour with vigorous shaking in frog Ringer ND96 (96 mM sodium chloride, 2 mM potassium chloride, 1.8 mM calcium chloride, 1.0 mM magnesium chloride, and 5 mM Hepes/Tris, pH 7.4) in the presence of 2 mg/ml collagenase B. Oocytes were then washed four times in ND96, manually defolliculated, and incubated overnight in ND96 at 18° C. On the next day, defolliculated stage V–VI oocytes were injected with 50 nl of water or a solution containing cRNA at a concentration of 0.25–0.5 μg/μl (25 ng/oocyte). Oocytes were incubated at 17–18° C. in ND96 (96 mM sodium chloride, 2 mM potassium chloride, 1.8 mM calcium chloride, 1.0 mM magnesium chloride, and 5 mM Hepes/Tris, pH 7.4), supplemented with 2.5 mM sodium pyruvate and 5 mg/100 ml gentamicin, for 3–4 days. The incubation medium was changed every 24 hours. On the day of the experiment, oocytes were switched to Cl^−-free ND96 (96 mM Na^+ Na^+ isethionate, 2 mM K^+ gluconate, 6 mM Ca^2+ gluconate, 1 mM Mg^2+ gluconate, 5 mM Hepes, 2.5 mM sodium pyruvate, 5 mg/100 ml gentamicin, pH 7.4) for 2 hours prior to the uptake assay.
For functional expression and in vitro translation, a full-length mKCC4 cDNA was used as a standard in the Xenopus expression vector pGEMHE (Liman et al. (1992) Neuron 9:861–871). The resulting construct contains nucleotides 55–3812 of mKCC4 (SEQ ID NO:13). For functional comparison with mKCC4, a full-length rabbit KCC1 cDNA was subcloned into pGEMHE. […] […] Transcription product integrity was confirmed on agarose gels, and concentration was determined by absorbance reading at 260 nm (DU 640 available from Beckman of Fullerton, Calif.).
K^+—Cl^− cotransport was assessed by measuring tracer ^86Rb^+ uptake (NEN® Life Science Products of Boston, Mass.) in experimental groups of at least 15 oocytes. […] All uptake solutions also contained 1.8 mM CaCl2, 1 mM MgCl2, 5 mM Hepes, pH 7.4, and were supplemented with 1 mM ouabain and […] ^86Rb^+. Isotonic conditions were generated by supplementing the same solutions with 3.5 g/100 ml sucrose to reach isosmolar conditions for oocytes (˜210 mOsm/kg). Ouabain was added to prevent ^86Rb^+ uptake via the Na^+—K^+-ATPase. The absence of extracellular Na^+ and the hypotonicity of the uptake medium prevented ^86Rb^+ uptake via the endogenous Na^+—K^+-2Cl^− cotransporter that is present in oocytes (Gamba et al. (1994) J Biol Chem 269:17713–17722).
All uptake assays were performed at 32° C. At the end of the uptake period, oocytes were washed five times in ice-cold uptake solution without isotope to remove extracellular fluid tracer. Oocytes were dissolved in 10% SDS, and tracer activity was determined for each oocyte by β-scintillation counting.
To determine the ion transport kinetics of KCC4 and KCC1, ^86Rb^+ uptake experiments were performed in variable concentrations of K^+ and Cl^−. […]

[1] = KCC4, counterion fixed at 50 mM, hypotonic
[2] = KCC4, counterion fixed at 50 mM, hypotonic, read-out: calculated apparent Km for extracellular ion concentration
[3] = 2 mM extracellular K+, hypotonic
[4] = 50 mM extracellular K+, hypotonic

Molecule: [Ba+2].[Cl-].[Cl-] [BaCl2]
- KCC4-induced influx, % of uptake in control oocytes (10 mM BaCl2 in hypotonic uptake medium): 58±4.3%

Molecule: Cl [Chloride]
- Hill coefficient (KCC4): 1.06±0.3
- calculated apparent Vmax for extracellular ion concentration [1]: 41,440±4,174 pmol×oocyte^−1×hour^−1
- Km [2]: 16.1 ± 4.2 mM
- Km (KCC4, read-out: Chloride Km): 15.3 mM

Molecule: O=S(=O)(O)c1cc(N=C=S)ccc1C=Cc1ccc(N=C=S)cc1S(=O)(=O)O [DIDS]
- KCC4 function remaining [3]: 65±10%
- KCC4 function remaining [4]: 13±4%

Molecule: CCCCC1(C2CCCC2)Cc2cc(OCC(=O)O)c(Cl)c(Cl)c2C1=O (stereo not drawn) [DIOA]
- effect on KCC4-induced 86Rb+ uptake (100 μM DIOA, hypotonic): inhibition

Molecule: CCN1C(=O)C=CC1=O [NEM, N-ethylmaleimide]
- reduction of KCC4-induced 86Rb+ uptake (1 mM NEM, hypotonic): 68%
- fold activation of KCC4 (1 mM NEM, isotonic): 5 fold
- 86Rb+ uptake in NEM-treated group (KCC4, 1 mM NEM, isotonic): 1062±70 pmol×oocyte^−1×hour^−1

Molecule: [K+] [Potassium]
- Hill coefficient (KCC4): 1.08±0.2
- calculated apparent Vmax for extracellular ion concentration [1]: 32,370±2,115 pmol×oocyte^−1×hour^−1
- Km [2]: 17.5 ± 2.7 mM
- Km (KCC4, read-out: Potassium Km): 17.5 mM

Molecule: CCCCNc1cc(C(=O)O)cc(S(N)(=O)=O)c1Oc1ccccc1 [bumetanide]
- relative KCC4 activity [3]: 90±4%
- relative KCC4 activity [4]: 17±4%
- IC50 (KCC4, 10 mM extracellular K+, read-out: apparent half-maximal inhibition (K=0.5) of Cl−-dependent 86Rb+ uptake): ~900 µM

Molecule: COC[C@@H]([C@H](O)[C@H](O)C(=O)NCC[C@H](C)c1nc(/C=C/C[C@@H]2O[C@]3(C[C@@H](O)[C@@H]2C)O[C@H]([C@H](C[C@H](O)[C@H](C)[C@H](O)[C@H](C)/C=C(C)/C(C)=C/C=C/C(C)=C\C#N)OC)[C@H](OP(=O)(O)O)C3(C)C)co1)N(C)C [calyculin A]
- effect on activation of KCC4 by cell swelling (hypotonic): completely prevents the activation

Molecule: CC1(C)C(C=C(Cl)Cl)C1C(=O)OC(C#N)c1cccc(Oc2ccccc2)c1 (stereo not drawn) [cypermethrin]
- effect on activation of KCC4 by cell swelling (hypotonic): neither okadaic acid, nor cypermethrin prevented this activation

Molecule: C=C1[C@@H](O)[C@@H]2O[C@]3(CC[C@H](/C=C/[C@@H](C)[C@@H]4CC(C)=C[C@@]5(O[C@H](C[C@@](C)(O)C(=O)O)CC[C@H]5O)O4)O3)CC[C@H]2O[C@@H]1[C@@H](O)C[C@H](C)[C@H]1O[C@@]2(CCCCO2)CC[C@H]1C [okadaic acid]
- effect on activation of KCC4 by cell swelling (hypotonic): neither okadaic acid, nor cypermethrin prevented this activation

Molecule: NS(=O)(=O)c1cc2c(cc1Cl)NC(C(Cl)Cl)NS2(=O)=O (stereo not drawn) [trichlormethiazide]
- relative KCC4 activity [3]: 79±3%
- relative KCC4 activity [4]: 57±9%

Molecule: HgCl2 [Hg—Cl2]
- response of KCC4 to mercury (50 μM HgCl2, hypotonic): sensitive
